Measured values published in patent US10947188B2, “Small molecule ferroptosis inducers” (THE TRUSTEES OF COLUMBIA UNIVERSITY IN THE CITY OF NEW YORK, priority 2016, dated 2021).
Where a SMILES comes first, the peptide text is derived from it. The star is where a group is joined. Cbz = O=C(OCc1ccccc1)*

Test system: BJeLR
Test: Modulatory profiling: Alamar Blue viability, lethal compound cotreated with death modulator (EC50, AUC)
Type: cell-based, human
Design: AUC, modulator BJ.Gd3+ / AUC, modulator BJ.LNAME / AUC, modulator BJ.Lmin / AUC, modulator BJ.3MA / AUC, modulator BJ.ALLN / AUC, modulator BJ.Boc D / AUC, modulator BJ.CHX / AUC, modulator BJ.Co2+ / AUC, modulator BJ.Nec-1 / AUC, modulator BJ.Pepstatin / AUC, modulator BJ.TLCK / AUC, modulator BJ.atoc / AUC, modulator BJ.trolox / AUC, modulator BJ.zVAD: unit not given beside the values
Conditions: BJeLR cells, modulatory profile value (AUC); for AUC, modulator BJ.3MA: lethal compound cotreated with modulator 3MA; for AUC, modulator BJ.ALLN: lethal compound cotreated with modulator ALLN; for AUC, modulator BJ.Boc D: lethal compound cotreated with modulator Boc D; for AUC, modulator BJ.CHX: lethal compound cotreated with modulator CHX; for AUC, modulator BJ.Co2+: lethal compound cotreated with modulator Co2+; for AUC, modulator BJ.DPQ: lethal compound cotreated with modulator DPQ; for AUC, modulator BJ.Gd3+: lethal compound cotreated with modulator Gd3+; for AUC, modulator BJ.LNAME: lethal compound cotreated with modulator LNAME; for AUC, modulator BJ.Lmin/NAD+: lethal compound cotreated with modulator Lmin/NAD+; for AUC, modulator BJ.Lmin: lethal compound cotreated with modulator Lmin; for AUC, modulator BJ.NAD+: lethal compound cotreated with modulator NAD+; for AUC, modulator BJ.NMMA: lethal compound cotreated with modulator NMMA; for AUC, modulator BJ.Nec-1: lethal compound cotreated with modulator Nec-1; for AUC, modulator BJ.Pepstatin: lethal compound cotreated with modulator Pepstatin; for AUC, modulator BJ.TLCK: lethal compound cotreated with modulator TLCK; for AUC, modulator BJ.atoc: lethal compound cotreated with modulator atoc; for AUC, modulator BJ.trolox: lethal compound cotreated with modulator trolox; for AUC, modulator BJ.zVAD: lethal compound cotreated with modulator zVAD

Compound	AUC, modulator BJ.3MA	AUC, modulator BJ.ALLN	AUC, modulator BJ.Boc D	AUC, modulator BJ.CHX	AUC, modulator BJ.Co2+	AUC, modulator BJ.DPQ	AUC, modulator BJ.Gd3+	AUC, modulator BJ.LNAME	AUC, modulator BJ.Lmin/NAD+	AUC, modulator BJ.Lmin	AUC, modulator BJ.NAD+	AUC, modulator BJ.NMMA	AUC, modulator BJ.Nec-1	AUC, modulator BJ.Pepstatin	AUC, modulator BJ.TLCK	AUC, modulator BJ.atoc	AUC, modulator BJ.trolox	AUC, modulator BJ.zVAD
COC(C)(C)C#CC(=O)c1cccc2ccccc12 [CIL34]	0.07701	−0.04374	−0.02462	0.1215	0.07311	0.03951	−0.032	−0.01631	0.04257	−0.0234	−0.004372	0.03326	−0.03852	0.04418	−0.1073	0.05781	0.007029	0.005997
CC(C)C[C@@H](C=O)NC(=O)[C@H](CC(C)C)NC(=O)[C@H](CC(C)C)NC(=O)OCc1ccccc1 [MG132, reference compound] (Cbz-Leu-Leu-Leu-aldehyde)	−0.04346	−0.2701	0.04216	0.2476	0.1849	−0.01327	0.03163	0.01789	0.2064	0.1487	0.04274	0.02073	−0.0504	−0.02291	0.1241	−0.002326	−0.01449	−0.08452
C[C@@H]1C[C@@H]([C@H](O)CC2CC(=O)NC(=O)C2)C(=O)[C@@H](C)C1 [cycloheximide, Cycloheximide, reference compound]	0.03847	0.09461	0.02242	0.3613	0.2375	0.02122	0.02359	0.007696	0.1057	0.0775	0.08265	0.002535	0.03326	0.01475	0.03153	0.0001672	0.01856	0.02186
CS[C@H]1SC[C@H]2C(=O)N(C)[C@@H](C(C)C)C(=O)OC[C@@H](NC(=O)c3cnc4ccccc4n3)C(=O)N[C@@H](C)C(=O)N(C)[C@@H]1C(=O)N(C)[C@@H](C(C)C)C(=O)OC[C@@H](NC(=O)c1cnc3ccccc3n1)C(=O)N[C@@H](C)C(=O)N2C [Echinomycin]	0.3457	0.02426	0.04925	0.2015	0.09321	−0.004325	0.002041	0.01199	0.2351	0.1205	0.2292	0.01082	−0.01901	−0.004369	−0.001724	0.1681	−0.04322	0.005973
CC(C)[C@@H]1NC(=O)[C@H](C)OC(=O)[C@@H](C(C)C)NC(=O)[C@@H](C(C)C)OC(=O)[C@H](C(C)C)NC(=O)[C@H](C)OC(=O)[C@@H](C(C)C)NC(=O)[C@@H](C(C)C)OC(=O)[C@H](C(C)C)NC(=O)[C@H](C)OC(=O)[C@@H](C(C)C)NC(=O)[C@@H](C(C)C)OC1=O [Vatinomycin]	0.03326	0.02063	0.02046	0.3573	0.09595	−0.02201	−0.0004394	−0.01323	0.1525	−0.007847	0.1101	−0.02634	0.01734	0.04946	0.006602	0.285	0.06867	0.03769
O=C(/C=C/c1cccc(NC(=O)c2cccs2)c1)c1ccccc1 [CIL33]	0.06199	−0.1124	−0.03229	0.1026	0.04311	0.02549	−0.06539	−0.03157	−0.0126	0.01529	0.05051	0.0458	−0.08953	0.07672	−0.1077	0.0414	−0.05339	−0.02675
